Data reported in publication PMC7470102, “Synthesis, anticancer evaluation and molecular docking studies of new benzimidazole- 1,3,4-oxadiazole derivatives as human topoisomerase types I poison” (Journal of Enzyme Inhibition and Medicinal Chemistry, 2020).
Where two headings read alike, the source gives them in different places.

How the values were obtained:
Topoisomerase I = target: T1, Topoisomerase I (Homo sapiens, UniProt P11387); experiment: DNA topoisomerase I assay (relaxation of supercoiled plasmid DNA, agarose gel); format: biochemical; details: agarose gel electrophoresis, camptothecin positive control, Figure 12
T1 construct: purchased TopoGen TG1018-2
T1 sequence (P11387 1-765): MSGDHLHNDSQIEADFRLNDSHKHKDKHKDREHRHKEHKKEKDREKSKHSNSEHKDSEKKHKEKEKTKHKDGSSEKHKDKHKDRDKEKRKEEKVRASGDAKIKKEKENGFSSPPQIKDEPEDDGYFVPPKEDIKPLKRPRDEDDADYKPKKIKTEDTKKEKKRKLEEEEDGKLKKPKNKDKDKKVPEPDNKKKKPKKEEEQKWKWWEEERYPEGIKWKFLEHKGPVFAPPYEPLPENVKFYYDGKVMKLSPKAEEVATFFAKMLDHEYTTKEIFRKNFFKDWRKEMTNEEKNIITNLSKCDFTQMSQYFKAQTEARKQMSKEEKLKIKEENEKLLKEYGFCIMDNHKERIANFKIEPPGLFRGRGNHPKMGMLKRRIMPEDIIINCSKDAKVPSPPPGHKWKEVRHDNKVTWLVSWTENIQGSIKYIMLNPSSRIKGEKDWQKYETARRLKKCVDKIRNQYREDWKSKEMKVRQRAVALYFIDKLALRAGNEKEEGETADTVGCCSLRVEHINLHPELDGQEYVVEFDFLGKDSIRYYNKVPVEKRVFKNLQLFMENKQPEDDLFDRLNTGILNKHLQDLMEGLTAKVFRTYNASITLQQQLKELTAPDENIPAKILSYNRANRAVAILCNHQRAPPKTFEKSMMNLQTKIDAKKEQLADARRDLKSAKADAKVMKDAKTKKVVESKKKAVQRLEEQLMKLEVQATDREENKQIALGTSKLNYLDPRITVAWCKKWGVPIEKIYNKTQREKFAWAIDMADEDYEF
Description: The topoisomerase I inhibition activities of final compounds were measured as relaxation of supercoiled plasmid DNA using agarose gel electrophoresis and camptothecin was used as a positive control. The assay was carried out in a final volume of 20 µl reaction volume containing 2 µl of 10xTGS Buffer, 6 µl water, 2 µl supercoiled plasmid DNA, 2 µl test compound, 2 µl of Top1, 2 ul 10% SDS, 2 µl proteinase K, 2 µl DNA loading dye. After incubation of reaction mixtures at 37 °C for 30 min, electrophoresis was done on a 1% agarose gel at a potential 50 V for 75 min using 1xTAE buffer.
To determine whether the DNA intercalation properties of compounds 5a, 5b, 5d, 5e, 5k, 5l, 5n and 5o might result in Topo I inhibition, agarose gel electrophores is assay was performed to evaluate the Topo I inhibitory activity of them via agarose-gel electrophoresis and CPT was used as the positive control. The TopoGEN Topoisomerase I Drug Screening Kit were optimised and implemented to accomplish this goal.
In a previous studies, it was said that the compounds poisoning topoisomerase caused the formation of nick bands in such gel appearances, while the formation of Supercoiled bands was said to be caused by catalytic inhibitors that bound to either DNA or enzyme[40]^,[41].

HeLa cells = experiment: DNA synthesis inhibition assay (BrdU), HeLa; format: cell-based; details: 48 h, 5b 0.698, 5l 0.224, 5n 0.205, doxorubicin 14.280 µg/mL
Description: (§1) The BrdU cell proliferation method was performed to analyse the effects of the active compounds on proliferation of cancer cells. Cancer cells were seeded into the 96-well plates at a density of 1 × 10^4 cells. Compounds were added into the each well at three different concentrations (IC50/2, IC50 and 2xIC50) and the plates were incubated for 24 h. At the end of the incubation period, BrdU solution was added and cells were reincubated for 2 h at 37 °C. Anti-BrdU-POD ([…]) was added and the mixture was incubated for 90 min. Microplates were washed with PBS for three times. After adding substrate solution, the mixture was incubated for 15 min. OD of the wells were determined at 492 nm. Proliferation of control cells was assessed as 100% and growth inhibition % of cells, treated with test compounds and […] were calculated.
(§2) According to the MTT assay, compound 5n for A549 cell line; compounds 5a, 5d, 5e, 5o for MCF-7 cell line; compound 5k for C6 cell line; compound 5a for HepG2 cell line; compounds 5b, 5l and 5n for HeLa cell line were selected for the DNA synthesis inhibition assay. A549, C6, MCF-7, HepG2 and HeLa cells were incubated with three different concentrations (IC50/2, IC50, and […]) of the compounds for 24 and 48 h time periods. […] Doxorubicin was used as positive control.

[1] = tested on: A549 (lung carcinoma cell line); experiment: MTT cytotoxicity assay, A549; format: cell-based; details: read-out: IC50 against A549
Description: (§3) The anticancer activity of compounds 5a–5o were screened according to the MTT assays. The MTT assays were performed as previously described[32]^,[33]. Anticancer activity of final compounds was assessed against five different cancer cell lines A549 (lung carcinoma cell line), HeLa (cervical cell line), MCF-7 (human breast adenocarcinoma cell line), HepG2 (human liver carcinoma cell line) and C6 (rat glioma cell line) cell lines as well as NIH3T3 (mouse embryo fibroblast cell line). Doxorubicin and Hoechst 33342 were used as the reference drugs in the MTT assays.
(§4) The benzimidazole-1,3,4-oxadiazole derivatives (5a-5o) were tested their cytotoxic effects in vitro using five cancer cell line A549 (lung carcinoma cell line), HeLa (cervical cell line), MCF-7 (human breast adenocarcinoma cell line), HepG2 (human liver carcinoma cell line) and C6 (rat glioma cell line) cell lines as well as NIH3T3 (mouse embryo fibroblast cell line). Doxorubicin and Hoechst 33342 were used for this study as a reference drugs.

[2] = tested on: HeLa (cervical cell line); experiment: MTT cytotoxicity assay, HeLa; format: cell-based; details: read-out: IC50 against HeLa
Description: as §3, §4

[3] = tested on: C6 (rat glioma cell line); experiment: MTT cytotoxicity assay, C6; format: cell-based; details: read-out: IC50 against C6
Description: as §3, §4

[4] = tested on: HepG2 (human liver carcinoma cell line); experiment: MTT cytotoxicity assay, HepG2; format: cell-based; details: read-out: IC50 against HepG2
Description: as §3, §4

[5] = tested on: MCF-7 (human breast adenocarcinoma cell line); experiment: MTT cytotoxicity assay, MCF-7; format: cell-based; details: read-out: IC50 against MCF-7
Description: as §3, §4

[6] = tested on: NIH3T3 (mouse embryo fibroblast cell line); experiment: MTT cytotoxicity assay, NIH3T3 healthy cells; format: cell-based; details: read-out: IC50 against NIH3T3
Description: The anticancer activity of compounds 5a–5o were screened according to the MTT assays. The MTT assays were performed as previously described[32]^,[33]. Anticancer activity of final compounds was assessed against five different cancer cell lines A549 (lung carcinoma cell line), HeLa (cervical cell line), MCF-7 (human breast adenocarcinoma cell line), HepG2 (human liver carcinoma cell line) and C6 (rat glioma cell line) cell lines as well as NIH3T3 (mouse embryo fibroblast cell line). Doxorubicin and Hoechst 33342 were used as the reference drugs in the MTT assays. It is crucial that an anticancer agent affects the cancer cell line but having minimal or no side-effect on healthy cells. For this purpose, the cytotoxic effects of the active compounds on the NIH3T3 cell line were investigated (Table 2).

HeLa cell line = experiment: Flow cytometric analysis (Annexin V/PI), HeLa; format: cell-based
Description: (§5) Death pathway of the carcinogenic cell lines was detected by Annexin V-FITC Apoptosis Detection Kit (BD, Pharmingen) as reported previously described. […] FCS Express software was used to display the percent of normal and apoptotic cells at different stages. […] The experiments were carried out in triplicates.
(§6) Annexin V/PI staining on tested cancer cells treated with the active compounds was performed to investigate induction of apoptosis. […] According to the MTT assay, compound 5n for A549 cell line; compounds 5a, 5d, 5e, 5o for MCF-7 cell line; compound 5k for C6 cell line; compound 5a for HepG2 cell line; compounds 5b, 5l and 5n for HeLa cell line were selected for the flow cytometric analysis. Furthermore, flow cytometry studies were performed for reference drug doxorubicin. Flow cytometric analysis diagrams of tested compounds and doxorubicin at IC50/2, IC50, and 2xIC50 concentrations on cancer cells were presented in Figures 7–11.

C6 cell line = experiment: Flow cytometric analysis (Annexin V/PI), C6; format: cell-based, rat; details: at IC50 concentrations
Description: as §5, §6

C6 cells = experiment: DNA synthesis inhibition assay (BrdU), C6; format: cell-based, rat; details: lower dose (IC50/2), 48 h vs 24 h incubation
Description: as §1, §2

A549 cells = experiment: DNA synthesis inhibition assay (BrdU), A549; format: cell-based; details: 48 h
Description: as §1, §2

A549 cell line = experiment: Flow cytometric analysis (Annexin V/PI), A549; format: cell-based; details: at IC50 concentrations
Description: as §5, §6

HepG2 cell line = experiment: Flow cytometric analysis (Annexin V/PI), HepG2; format: cell-based, human; details: at IC50 concentrations, 24 h incubation
Description: as §5, §6

MCF-7 cell line = experiment: Flow cytometric analysis (Annexin V/PI), MCF-7; format: cell-based, human; details: MCF-7 cells
Description: as §5, §6

MCF7 cells = experiment: DNA synthesis inhibition assay (BrdU), MCF7; format: cell-based, human; details: 48 h, 5e at 7.318 µg/mL, doxorubicin at 10.525 µg/mL
Description: as §1, §2

HepG2 cells = experiment: DNA synthesis inhibition assay (BrdU), HepG2; format: cell-based, human; details: 5a at 5.695 µg/mL, doxorubicin at 16.482 µg/mL
Description: as §1, §2

[7] = Homo sapiens, MCF7, MCF-7 cell line
[8] = 5n at 5.39 µg/mL, doxorubicin at 6.21 µg/mL
[9] = 5n at 7.39 µg/mL, doxorubicin at 12.42 µg/mL
[10] = 5n at 14.77 µg/mL, doxorubicin at 24.84 µg/mL

Structure (SMILES)	Topo I inhibition activity (Topoisomerase I)	% DNA synthesis inhibition (HeLa cells)	IC50 ([1]; Homo sapiens, A549, MTT assay)	IC50 ([2]; Homo sapiens)	IC50 ([3]; Rattus norvegicus)	IC50 ([4]; Homo sapiens)	IC50 [5, 7]	IC50 ([6]; Mus musculus)	percentage of apoptotic cells (HeLa cell line)	percentage of apoptotic cells (C6 cell line)	% DNA synthesis inhibition (A549 cells; [8])	% DNA synthesis inhibition (A549 cells; [9])	% DNA synthesis inhibition (A549 cells; [10])	percentage of apoptotic cells (A549 cell line)	further results
CCOc1ccc(-c2nc3ccc(-c4nnc(SCC(=O)N5CCN(CC)CC5)o4)cc3[nH]2)cc1 [5l, 2-((5-(2-(4-Ethoxyphenyl)-1H-benzo[d]imidazol-6-yl)-1,3,4-oxadiazol-2-yl)thio)-1–(4-ethyl-piperazin-1-yl)-ethane-1-on]	potent topo I inhibition activity	56.01%	31 ± 1.53 µM	0.224 ± 0.011 µM	≥ 100 µM	≥ 100 µM	≥ 100 µM	113 ± 5.47 µM	8.6%						
CCOc1ccc(-c2nc3ccc(-c4nnc(SCC(=O)N5CCN(C)CC5)o4)cc3[nH]2)cc1 [5k, 2-((5-(2-(4-Ethoxyphenyl)-1H-benzo[d]imidazol-6-yl)-1,3,4-oxadiazol-2-yl)thio)-1–(4-methyl-piperazin-1-yl)-ethane-1-on]	potent topo I inhibition activity		22.3 ± 1.05 µM	11.2 ± 0.467 µM	3.2 ± 0.152 µM	≥ 100 µM	38.7 ± 1.88 µM	74.6 ± 3.63 µM		12.3%					DNA synthesis inhibition at 48 h relative to 24 h (C6 cells): eight times higher
CCOc1ccc(-c2nc3ccc(-c4nnc(SCC(=O)N5CCN(c6ccccn6)CC5)o4)cc3[nH]2)cc1 [5n]	potent topo I inhibition activity	57.65%							15.2%		66.00%	68.25%	78.17%	13%	IC50 ([1]; MTT assay): 7.39 ± 0.325 µM; IC50 [2]: 0.205 ± 0.01 µM; IC50 [3]: ≥ 100 µM; IC50 [4]: ≥ 100 µM; IC50 ([5]; MCF-7 cell line): ≥ 100 µM; IC50 [6]: 189 ± 8.73 µM
COc1cccc2c1C(=O)c1c(O)c3c(c(O)c1C2=O)C[C@@](O)(C(=O)CO)C[C@@H]3O[C@H]1C[C@H](N)[C@H](O)[C@H](C)O1 [Dox., doxorubicin, reference compound]			12.4 ± 0.521 µM	14.3 ± 0.704 µM	28.7 ± 1.23 µM	16.5 ± 0.804 µM	10.5 ± 0.472 µM	1111 ± 8.25 µM		13.7%	62.78%	73.43%	81.22%	19.2%	percentage of apoptotic cells (HepG2 cell line): 9.4%; inhibition at 14.28 µg/mL (HeLa cells; Homo sapiens): 66.5%; percentage of apoptosis (early + late apoptotic cells) (MCF-7 cell line): 12.7%; % DNA synthesis inhibition (MCF7 cells): 84.60%; % DNA synthesis inhibition (HepG2 cells; 24 h): 42.80%; % DNA synthesis inhibition (HepG2 cells; 48 h): 74.22%
